Test system: MV-4-11 cells
Assay: Gene expression microarray analysis (Affymetrix PrimeView) and GSEA
Type: cell-based, human
Design: RFU PODN (11730768_x_at) / Fold change /veh PODN (11730768_x_at) / RFU LINC00158 (11744669_a_at) / Fold change /veh LINC00158 (11744669_a_at) / RFU DUSP10 (11751237_a_at) / Fold change /veh DUSP10 (11751237_a_at) / RFU ID3 (11757404_x_at) / Fold change /veh ID3 (11757404_x_at) / RFU PLEKHG5 (11737974_s_at) / Fold change /veh PLEKHG5 (11737974_s_at) / RFU LRRC4B (11730491_at) / Fold change /veh LRRC4B (11730491_at) / RFU GIMAP4 (11747438_a_at) / Fold change /veh GIMAP4 (11747438_a_at) / RFU KRT8 (11758183_x_at) / Fold change /veh KRT8 (11758183_x_at) / RFU CNN1 (11734310_a_at) / Fold change /veh CNN1 (11734310_a_at) / RFU VPS37D (11726825_at) / Fold change /veh VPS37D (11726825_at) / RFU C10orf10 (11716522_x_at) / Fold change /veh C10orf10 (11716522_x_at) / RFU KIR2DL2 /// KIR2DL4 /// KIR2DL5A /// KIR2DL5B /// KIR2DS1 /// KIR2DS2 /// KIR2DS3 /// KIR2DS4 /// KIR3DL3 /// KIR3DL3 /// KIR3DS1 (11738374_at) / Fold change /veh KIR2DL2 /// KIR2DL4 /// KIR2DL5A /// KIR2DL5B /// KIR2DS1 /// KIR2DS2 /// KIR2DS3 /// KIR2DS4 /// KIR3DL3 /// KIR3DL3 /// KIR3DS1 (11738374_at) / RFU C1QL1 (11718748_at) / Fold change /veh C1QL1 (11718748_at) / RFU TMPRSS4 (11747572_a_at) / Fold change /veh TMPRSS4 (11747572_a_at) / RFU HAMP (11756126_x_at) / Fold change /veh HAMP (11756126_x_at) / RFU RNFT2 (11725882_a_at) / Fold change /veh RNFT2 (11725882_a_at) / RFU NR4A2 (11747474_a_at) / Fold change /veh NR4A2 (11747474_a_at) / RFU ABCC12 (11746883_a_at) / Fold change /veh ABCC12 (11746883_a_at) / RFU TMEM136 (11760407_x_at) / Fold change /veh TMEM136 (11760407_x_at) / RFU CLDN22 /// WWC2 (11732394_at) / Fold change /veh CLDN22 /// WWC2 (11732394_at) / RFU HLA-DPB1 (11760878_x_at) / Fold change /veh HLA-DPB1 (11760878_x_at) / RFU SPINT1 (11716480_a_at) / Fold change /veh SPINT1 (11716480_a_at) / RFU GAP43 (11754022_s_at) / Fold change /veh GAP43 (11754022_s_at) / RFU A4GNT (11735810_at) / Fold change /veh A4GNT (11735810_at) / RFU PRB3 (11715151_x_at) / Fold change /veh PRB3 (11715151_x_at) / RFU TUBB4B (11761932_at) / Fold change /veh TUBB4B (11761932_at) / RFU CAPN14 (11732068_a_at) / Fold change /veh CAPN14 (11732068_a_at) / RFU TMCC2 (11721928_a_at) / Fold change /veh TMCC2 (11721928_a_at) / RFU IRGQ (11745062_a_at) / Fold change /veh IRGQ (11745062_a_at) / RFU FAM174B (11720279_a_at) / Fold change /veh FAM174B (11720279_a_at) / RFU TMPRSS4 (11748680_a_at) / Fold change /veh TMPRSS4 (11748680_a_at) / RFU FAM212B (11763350_a_at) / Fold change /veh FAM212B (11763350_a_at) / RFU PLEKHG5 (11743358_a_at) / Fold change /veh PLEKHG5 (11743358_a_at) / RFU ZSCAN30 (11745921_a_at) / Fold change /veh ZSCAN30 (11745921_a_at) / RFU CMKLR1 (11741424_a_at) / Fold change /veh CMKLR1 (11741424_a_at) / RFU LOC101060620 /// MAPK8IP1 (11723275_at) / Fold change /veh LOC101060620 /// MAPK8IP1 (11723275_at) / RFU SPTSSB (11747773_x_at) / Fold change /veh SPTSSB (11747773_x_at) / RFU PRSS12 (11739890_at) / Fold change /veh PRSS12 (11739890_at) / RFU BIN1 (11741810_x_at) / Fold change /veh BIN1 (11741810_x_at) / RFU WNT11 (11732464_a_at) / Fold change /veh WNT11 (11732464_a_at) / RFU C10orf10 (11716521_a_at) / Fold change /veh C10orf10 (11716521_a_at) / RFU C5orf56 (11738089_at) / Fold change /veh C5orf56 (11738089_at) / RFU CYB561 (11721691_x_at) / Fold change /veh CYB561 (11721691_x_at) / RFU ANKRD19P (11752326_a_at) / Fold change /veh ANKRD19P (11752326_a_at) / RFU OR2T12 /// OR2T33 /// OR2T8 (11738714_s_at) / Fold change /veh OR2T12 /// OR2T33 /// OR2T8 (11738714_s_at) / RFU VCAN (11748164_a_at) / Fold change /veh VCAN (11748164_a_at) / RFU JSRP1 (11732532_at) / Fold change /veh JSRP1 (11732532_at) / RFU KRTAP10-11 (11738290_x_at) / Fold change /veh KRTAP10-11 (11738290_x_at) / RFU MYO3A (11730013_a_at) / Fold change /veh MYO3A (11730013_a_at) / RFU EBF3 (11725865_a_at) / Fold change /veh EBF3 (11725865_a_at) / RFU CAMK2N1 (11719241_x_at) / Fold change /veh CAMK2N1 (11719241_x_at) / RFU C5orf56 (11738088_a_at) / Fold change /veh C5orf56 (11738088_a_at) / RFU OLFML3 (11715873_a_at) / Fold change /veh OLFML3 (11715873_a_at) / RFU LOC100653217 /// NTM (11731650_a_at) / Fold change /veh LOC100653217 /// NTM (11731650_a_at) / RFU MAPK11 (11762145_a_at) / Fold change /veh MAPK11 (11762145_a_at) / RFU FIZ1 (11724087_x_at) / Fold change /veh FIZ1 (11724087_x_at) / RFU OASL (11726364_x_at) / Fold change /veh OASL (11726364_x_at) / RFU SOX15 (11748057_x_at) / Fold change /veh SOX15 (11748057_x_at) / RFU CD79A (11719716_a_at) / Fold change /veh CD79A (11719716_a_at) / RFU HIST1H1D (11736915_at) / Fold change /veh HIST1H1D (11736915_at) / RFU CASKIN2 (11723855_a_at) / Fold change /veh CASKIN2 (11723855_a_at) / RFU LOC730098 (11760151_x_at) / Fold change /veh LOC730098 (11760151_x_at) / RFU OR4N2 (11742367_at) / Fold change /veh OR4N2 (11742367_at) / RFU PRRT2 (11749266_a_at) / Fold change /veh PRRT2 (11749266_a_at) / RFU SNX32 (11753110_a_at) / Fold change /veh SNX32 (11753110_a_at) / RFU CDHR5 (11726645_a_at) / Fold change /veh CDHR5 (11726645_a_at) / RFU RCAN1 (11760418_a_at) / Fold change /veh RCAN1 (11760418_a_at) / RFU FAM167A (11723789_a_at) / Fold change /veh FAM167A (11723789_a_at) / RFU FAM26E (11764081_at) / Fold change /veh FAM26E (11764081_at) / RFU ISYNA1 (11749810_s_at) / Fold change /veh ISYNA1 (11749810_s_at) / RFU ACY1 (11761880_at) / Fold change /veh ACY1 (11761880_at) / RFU 11764098_at / Fold change /veh 11764098_at / RFU SAMD14 (11745864_x_at) / Fold change /veh SAMD14 (11745864_x_at) / RFU NPB (11741838_a_at) / Fold change /veh NPB (11741838_a_at) / RFU TMPRSS6 (11731388_a_at) / Fold change /veh TMPRSS6 (11731388_a_at) / RFU KRTAP10-2 (11738614_at) / Fold change /veh KRTAP10-2 (11738614_at) / RFU ARHGAP8 /// PRR5-ARHGAP8 (11727945_x_at) / Fold change /veh ARHGAP8 /// PRR5-ARHGAP8 (11727945_x_at) / RFU KRTAP5-7 /// NADSYN1 (11734609_at) / Fold change /veh KRTAP5-7 /// NADSYN1 (11734609_at) / RFU RASL12 (11751679_a_at) / Fold change /veh RASL12 (11751679_a_at) / RFU CDKN2B (11736163_a_at) / Fold change /veh CDKN2B (11736163_a_at) / RFU PRF1 (11729649_at) / Fold change /veh PRF1 (11729649_at) / RFU, ZNF638 /// ZNF638-IT1 / Fold change vs veh, ZNF638 /// ZNF638-IT1 / RFU, PANK3 / Fold change vs veh, PANK3 / RFU, SH3YL1 / Fold change vs veh, SH3YL1 / RFU, ZEB2 / Fold change vs veh, ZEB2 / RFU, NRIP1 / Fold change vs veh, NRIP1 / RFU, PTTG1IP / Fold change vs veh, PTTG1IP / RFU, CAPN2 / Fold change vs veh, CAPN2 / RFU, MED14 / Fold change vs veh, MED14 / RFU, SNORA58 / Fold change vs veh, SNORA58 / RFU, C1orf63 / Fold change vs veh, C1orf63 / RFU, LRRFIP1 / Fold change vs veh, LRRFIP1 / RFU, NDUFAF7 / Fold change vs veh, NDUFAF7 / RFU, SLC12A2 / Fold change vs veh, SLC12A2 / RFU, IBTK / Fold change vs veh, IBTK / RFU, ESF1 / Fold change vs veh, ESF1 / Fold change vs veh, TMEM50B / RFU, TAOK1 / Fold change vs veh, TAOK1 / RFU, ACBD3 / Fold change vs veh, ACBD3 / RFU, TMA16 / Fold change vs veh, TMA16 / RFU, RWDD3 / Fold change vs veh, RWDD3 / RFU, BCAT1 / Fold change vs veh, BCAT1 / RFU, EDEM3 / Fold change vs veh, EDEM3 / RFU, TMEM33 / Fold change vs veh, TMEM33 / RFU, WDR75 / Fold change vs veh, WDR75 / RFU, AHCTF1 / Fold change vs veh, AHCTF1 / RFU, TFRC / Fold change vs veh, TFRC / RFU, ZDHHC17 / Fold change vs veh, ZDHHC17 / RFU, NOM1 / Fold change vs veh, NOM1 / RFU, ARL8B / Fold change vs veh, ARL8B / RFU, ZBTB11 / Fold change vs veh, ZBTB11 / RFU, TAMM41 / Fold change vs veh, TAMM41 / RFU, KIAA1704 /// LOC100996395 / Fold change vs veh, KIAA1704 /// LOC100996395 / RFU, ING1 / Fold change vs veh, ING1 / RFU, TRMT61B / Fold change vs veh, TRMT61B / RFU, FUBP3 / Fold change vs veh, FUBP3 / RFU, TP53 / Fold change vs veh, TP53 / RFU, TNKS2 / Fold change vs veh, TNKS2 / RFU, ZFP14 / Fold change vs veh, ZFP14 / RFU, ACTR2 / Fold change vs veh, ACTR2 / RFU, PPP3R1 / Fold change vs veh, PPP3R1 / RFU, PIK3R1 / Fold change vs veh, PIK3R1 / RFU, HNRNPA1 / Fold change vs veh, HNRNPA1 / RFU, RNF170 / Fold change vs veh, RNF170 / RFU, ZNF28 / Fold change vs veh, ZNF28 / RFU, RNGTT / Fold change vs veh, RNGTT / RFU, OGT / Fold change vs veh, OGT / RFU, BRD1 / Fold change vs veh, BRD1 / RFU, MARS / Fold change vs veh, MARS / RFU, ZNF655 / Fold change vs veh, ZNF655 / RFU, FAHD1 / Fold change vs veh, FAHD1 / RFU, BDP1 / Fold change vs veh, BDP1 / RFU, LRRCC1 / Fold change vs veh, LRRCC1 / RFU, ARID1A / Fold change vs veh, ARID1A / RFU, ZNF146 / Fold change vs veh, ZNF146 / RFU, ZNF330 / Fold change vs veh, ZNF330 / RFU, GPN3 / Fold change vs veh, GPN3 / RFU, C9orf123 / Fold change vs veh, C9orf123 / RFU, N4BP2L2 / Fold change vs veh, N4BP2L2 / RFU, ARFIP1 / Fold change vs veh, ARFIP1 / RFU, FAM179B / Fold change vs veh, FAM179B / RFU, BCL10 / Fold change vs veh, BCL10 / RFU, UHRF1BP1L / Fold change vs veh, UHRF1BP1L / RFU, BET1 / Fold change vs veh, BET1 / RFU, CNOT2 / Fold change vs veh, CNOT2 / RFU, ZNF268 / Fold change vs veh, ZNF268 / Fold change vs veh, ZNF507 / RFU, DGCR2 / Fold change vs veh, DGCR2 / RFU, WDSUB1 / Fold change vs veh, WDSUB1 / Fold change vs veh, HSP90B1 /// MIR3652 / RFU, ADSS / Fold change vs veh, ADSS / RFU, GK / Fold change vs veh, GK / RFU, ZNF148 / Fold change vs veh, ZNF148 / RFU, TAF9 / Fold change vs veh, TAF9 / RFU, SLC1A5 / Fold change vs veh, SLC1A5 / RFU, SLMO2 / Fold change vs veh, SLMO2 / RFU, ABCC4 / Fold change vs veh, ABCC4 / RFU, LOC101060439 /// RAP1B / Fold change vs veh, LOC101060439 /// RAP1B / RFU, RFX7 / Fold change vs veh, RFX7 / RFU, GTPBP10 / Fold change vs veh, GTPBP10 / RFU, CNEP1R1 / Fold change vs veh, CNEP1R1 / RFU, BIVM-ERCC5 /// ERCC5 / Fold change vs veh, BIVM-ERCC5 /// ERCC5 / RFU, ILF3 / Fold change vs veh, ILF3 / RFU 11762660_at / Fold change /veh 11762660_at / RFU VCAN (11757783_s_at) / Fold change /veh VCAN (11757783_s_at) / RFU DDX43 (11728927_at) / Fold change /veh DDX43 (11728927_at) / RFU KRT8 (11758188_x_at) / Fold change /veh KRT8 (11758188_x_at) / RFU NKD1 (11759106_at) / Fold change /veh NKD1 (11759106_at) / RFU SRD5A1 (11742802_a_at) / Fold change /veh SRD5A1 (11742802_a_at) / RFU TPSAB1 /// TPSB2 (11721975_s_at) / Fold change /veh TPSAB1 /// TPSB2 (11721975_s_at) / RFU GSTM3 (11746129_a_at) / Fold change /veh GSTM3 (11746129_a_at) / RFU IL23R (11737362_x_at) / Fold change /veh IL23R (11737362_x_at) / RFU TMEM51 (11727254_a_at) / Fold change /veh TMEM51 (11727254_a_at) / RFU PIWIL2 (11732686_x_at) / Fold change /veh PIWIL2 (11732686_x_at) / RFU ORM1 (11744905_x_at) / Fold change /veh ORM1 (11744905_x_at) / RFU CCDC152 (11743942_at) / Fold change /veh CCDC152 (11743942_at) / RFU ECM1 (11717891_a_at) / Fold change /veh ECM1 (11717891_a_at) / RFU IL23R (11748794_a_at) / Fold change /veh IL23R (11748794_a_at) / RFU TNFAIP8L3 (11732012_x_at) / Fold change /veh TNFAIP8L3 (11732012_x_at) / RFU MBOAT4 (11741988_at) / Fold change /veh MBOAT4 (11741988_at) / RFU 11764193_at / Fold change /veh 11764193_at / RFU TMEM53 (11763286_at) / Fold change /veh TMEM53 (11763286_at) / RFU MAGEB2 (11727129_at) / Fold change /veh MAGEB2 (11727129_at) / RFU TMEM200A (11744735_a_at) / Fold change /veh TMEM200A (11744735_a_at) / RFU CCDC152 (11751479_a_at) / Fold change /veh CCDC152 (11751479_a_at) / RFU FAM211A (11726209_a_at) / Fold change /veh FAM211A (11726209_a_at) / RFU RGS16 (11746705_a_at) / Fold change /veh RGS16 (11746705_a_at) / RFU VCAN (11755009_s_at) / Fold change /veh VCAN (11755009_s_at) / RFU RHOB (11743442_s_at) / Fold change /veh RHOB (11743442_s_at) / RFU RGS16 (11720943_a_at) / Fold change /veh RGS16 (11720943_a_at) / RFU RGS16 (11720944_at) / Fold change /veh RGS16 (11720944_at) / RFU, VPS4B / Fold change vs veh, VPS4B / RFU, CREB1 / Fold change vs veh, CREB1 / RFU, DNAJC13 / Fold change vs veh, DNAJC13 / RFU, GNAQ / Fold change vs veh, GNAQ / RFU, CDK5R1 / Fold change vs veh, CDK5R1 / RFU, ZRANB3 / Fold change vs veh, ZRANB3 / RFU, CUL4A / Fold change vs veh, CUL4A / RFU, CCNY / Fold change vs veh, CCNY / RFU, UFL1 / Fold change vs veh, UFL1 / RFU, COG3 / Fold change vs veh, COG3 / RFU, DIAPH2 / Fold change vs veh, DIAPH2 / RFU, SKA2 / Fold change vs veh, SKA2 / RFU, AFF3 / Fold change vs veh, AFF3 / RFU, LMF1 / Fold change vs veh, LMF1 / RFU, IPO11 / Fold change vs veh, IPO11 / RFU, DFFB / Fold change vs veh, DFFB / RFU, FOXP1 / Fold change vs veh, FOXP1 / RFU, CARD8 / Fold change vs veh, CARD8 / RFU, STRN3 / Fold change vs veh, STRN3 / RFU, ADK / Fold change vs veh, ADK / RFU, RASSF2 / Fold change vs veh, RASSF2 / RFU, WIPF1 / Fold change vs veh, WIPF1 / RFU, LARP1B / Fold change vs veh, LARP1B / RFU, RASA1 / Fold change vs veh, RASA1 / RFU, RB1 / Fold change vs veh, RB1 / RFU, PPFIA1 / Fold change vs veh, PPFIA1 / RFU, MAT2A / Fold change vs veh, MAT2A / RFU, CCT5 / Fold change vs veh, CCT5 / RFU, WDR92 / Fold change vs veh, WDR92 / RFU, CUX1 / Fold change vs veh, CUX1 / RFU, TTC7A / Fold change vs veh, TTC7A / RFU, TMEM135 / Fold change vs veh, TMEM135 / RFU, DEPTOR / Fold change vs veh, DEPTOR / RFU, CPM / Fold change vs veh, CPM / RFU, DNAJB6 / Fold change vs veh, DNAJB6 / RFU, CACNA2D3 / Fold change vs veh, CACNA2D3 / RFU, DTX4 / Fold change vs veh, DTX4 / RFU, TFCP2 / Fold change vs veh, TFCP2 / RFU, GMCL1 /// GMCL1P1 / Fold change vs veh, GMCL1 /// GMCL1P1 / RFU, AEBP2 / Fold change vs veh, AEBP2 / RFU, SNHG1 /// SNORD22 /// SNORD25 /// SNORD26 /// SNORD27 /// SNORD28 /// SNORD29 /// SNORD31 / Fold change vs veh, SNHG1 /// SNORD22 /// SNORD25 /// SNORD26 /// SNORD27 /// SNORD28 /// SNORD29 /// SNORD31 / Fold change (Aza/veh), C12orf56 (ProbeSet 11735607_a_at) / Fold change (ACY-1035/veh), C12orf56 (ProbeSet 11735607_a_at) / Fold change (Aza/veh), FGFR1OP (ProbeSet 11751329_s_at) / Fold change (ACY-1035/veh), FGFR1OP (ProbeSet 11751329_s_at) / Fold change (Aza/veh), VPS36 (ProbeSet 11739960_a_at) / Fold change (ACY-1035/veh), VPS36 (ProbeSet 11739960_a_at) / RFU SYPL1 (11715823_x_at) / Fold change /veh SYPL1 (11715823_x_at) / RFU IGFBP7 (11715501_s_at) / Fold change /veh IGFBP7 (11715501_s_at) / RFU REEP3 (11722064_at) / Fold change /veh REEP3 (11722064_at) / RFU IGLL1 (11728026_x_at) / Fold change /veh IGLL1 (11728026_x_at): dose or concentration left out as unconfirmed
Conditions: ProbeSet 11762504_a_at; LIST D

In the case of `Nc1ncn([C@@H]2O[C@H](CO)[C@@H](O)[C@H]2O)c(=O)n1` [azacitidine], the “RFU, ZRANB3” value was 79.10 RFU.
